Laboratory results from patent US7235536B2, “Cellulose sulfate and other sulfated polysaccharides to prevent and treat papilloma virus infection and other infections” (Rush Presbyterian-St. Luke's Medical Center, priority 2000, dated 2007).

Experiments:
Prevotella bivia = assay: Broth method MIC; format: cell-based
Prevotella intermedia = assay: Broth method MIC; format: cell-based; conditions: for CS MIC: Broth (study 2)
Fusobacterium nucleatum = assay: Broth method MIC; format: cell-based; conditions: for CS MIC: Broth (study 2)
BPV-1 = BPV-1 focus-forming assay, virus preincubated with compound (Table C); format: cell-based, bovine papilloma virus; conditions: C127 cell line
Method: In a similar study using the BPV-1 focus forming assay, the effect of the cellulose sulfate and dextran sulfate on BPV was tested. In this study, cellulose sulfate tested was as described above. Dextran sulfate used was from Dextran Products Limited (Lot DSM-122) prepared using dextan of average Mr of about 500,000 (based on viscosity) and is estimated to have a final average Mr greater than about 500,000 and may be about 1 to 1.1 million.
Microbicidal activity of the compounds was tested using the well-characterized BPV-1 focus-forming assay (Dvoretzky, I., R. Shober, S. K. Chattopadhyay, and D. R. Lowy. 1980. A quantitative in vitro focus assay for bovine papilloma virus. Virology 103:369-375), with modifications for microbicide testing (Hermonat, P. L., (1992) supra; Howett, M. K., et al. (1999) supra. The terms inhibiting or microbicidal activity when used are intended to refer broadly to microbe infection and/or microbe inactivating effect.
Aliquots of BPV-1 containing approximately 100-200 focus-forming units were preincubated with dilutions of compounds for 10 min at 37° C. prior to addition to cultures of mouse C127 cells. Cultures of C127 cells were set up in T25 tissue culture flasks (Corning, N.Y.), containing 3×10^5 cells per flask. Virus-compound mixtures in a total of 50 μl were then added to flasks in 1 ml of media, and an additional 3 ml of media added after 24 hrs culture. Media was changed every 3-4 days for a period of 2 weeks. Foci were enumerated following staining of the monolayer with crystal violet and counting stained foci microscopically. Each concentration of compound was tested in duplicate, and the mean±SD of foci number for the preincubation virus-drug concentration for each compound is shown below as Table C.
Clones were derived from the parental C127 cell line because of the consistent failure of BPV-1 to induce foci following several cell passages of the uncloned parental cell line. One clone, labeled C127-D10, which produced foci upon BPV-1 infection, was chosen for a repeat testing of the compounds. When this clone was tested for microbicidal activity, less compound was required to achieve high reduction in BPV-1-induced foci when compared to the uncloned parental-C127 cells.

Aspergillus niger = assay: Microbial challenge of CS gel; format: cell-based
Method: (§1) 6% CS was prepared in water as a translucent gel. Twenty grams of the gel was placed in a plastic screw-cap centrifuge tube. The microbial inoculants were prepared, gently vortexed and 0.1 ml inoculant was aseptically pipetted into the 20.0 gram gel. This procedure was repeated for each microbial organism. The samples were incubated at room temperature (20-25° C.) for 14 days or 28 days. The microbes tested and their theoretical yields can be found in Table F. After 14 or 28 days incubation, dilutions (10^−1, 10^−2, 10^−3) of the gels were made in saline and 1 ml plated onto Sabouraud dextrose (Aspergillus and Candida) or onto tryptic soy (other microbes). The number of organisms that grew after 3-7 days at room temperature were counted.
(§2) In another study, CS was dissolved in water at the concentrations indicated below. No other ingredients, including preservatives, were added. The gels were challenged with microbes as described above except that the gels were examined for the presence of microbes after 1, 2, 3, 4 and 7 days. The amount of microbes origially inoculated in the gels is also shown below.

Escherichia coli = assay: Microbial challenge of CS gel; format: cell-based
Method: as §1, §2

Pseudomonas aeruginosa = assay: Microbial challenge of CS gel; format: cell-based
Method: as §1, §2

sodium cellulose sulfate
growth inhibition (Prevotella bivia; all strains): inhibited
CS MIC (Prevotella bivia; rma# 11683, Broth (study 1)): NI (not inhibited by 10 mg/ml (the highest concentration tested))
CS MIC (Prevotella bivia; rma# 11683, Broth (study 2)): 5000 µg/mL
CS MIC (Prevotella bivia; rma# 11697, Broth (study 1)): 600 µg/mL
CS MIC (Prevotella bivia; rma# 11697, Broth (study 2)): 5000 µg/mL
growth inhibition (Prevotella intermedia; all strains): inhibited
CS MIC (Prevotella intermedia; rma# 11142): 10000 µg/mL
CS MIC (Prevotella intermedia; rma# 11168): 10000 µg/mL
growth inhibition (Fusobacterium nucleatum; both strains, broth method): inhibited
CS MIC (Fusobacterium nucleatum; rma# 10481): 5000 µg/mL
CS MIC (Fusobacterium nucleatum; rma# 11518): 10000 µg/mL
inhibition of papilloma virus infectivity (BPV-1; 1 mg/ml): complete inhibition
inhibition of papilloma virus infectivity (BPV-1; 10 to 100 μg/ml): moderate to high inhibition
Day 14 CFU/g (Aspergillus niger; 6% CS gel, ATCC 16404, room temperature, Day 14): 0 CFU/g
Day 28 CFU/g (Aspergillus niger; 6% CS gel, ATCC 16404, room temperature, Day 28): 0 CFU/g
Asperigillus niger CFU (Aspergillus niger; CS 0.06% in water, 24 hours): 0 CFU × 10^5/ml
Asperigillus niger CFU (Aspergillus niger; CS 0.06% in water, 48 hours): 0 CFU × 10^5/ml
Asperigillus niger CFU (Aspergillus niger; CS 0.06% in water, 72 hours): 0 CFU × 10^5/ml
Asperigillus niger CFU (Aspergillus niger; CS 0.06% in water, 96 hours): 0 CFU × 10^5/ml
Asperigillus niger CFU (Aspergillus niger; CS 0.06% in water, 7 days): 0 CFU × 10^5/ml
Asperigillus niger CFU (Aspergillus niger; CS 0.6% in water, 24 hours): 0 CFU × 10^5/ml
Asperigillus niger CFU (Aspergillus niger; CS 0.6% in water, 48 hours): 0 CFU × 10^5/ml
Asperigillus niger CFU (Aspergillus niger; CS 0.6% in water, 72 hours): 0 CFU × 10^5/ml
Asperigillus niger CFU (Aspergillus niger; CS 0.6% in water, 96 hours): 0 CFU × 10^5/ml
Asperigillus niger CFU (Aspergillus niger; CS 0.6% in water, 7 days): 0 CFU × 10^5/ml
Asperigillus niger CFU (Aspergillus niger; CS 1.2% in water, 24 hours): 0 CFU × 10^5/ml
Asperigillus niger CFU (Aspergillus niger; CS 1.2% in water, 48 hours): 0 CFU × 10^5/ml
Asperigillus niger CFU (Aspergillus niger; CS 1.2% in water, 72 hours): 0 CFU × 10^5/ml
Asperigillus niger CFU (Aspergillus niger; CS 1.2% in water, 96 hours): 0 CFU × 10^5/ml
Asperigillus niger CFU (Aspergillus niger; CS 1.2% in water, 7 days): 0 CFU × 10^5/ml
Asperigillus niger CFU (Aspergillus niger; CS 6% in water, 24 hours): 0 CFU × 10^5/ml
Asperigillus niger CFU (Aspergillus niger; CS 6% in water, 48 hours): 0 CFU × 10^5/ml
Asperigillus niger CFU (Aspergillus niger; CS 6% in water, 72 hours): 0 CFU × 10^5/ml
Asperigillus niger CFU (Aspergillus niger; CS 6% in water, 96 hours): 0 CFU × 10^5/ml
Asperigillus niger CFU (Aspergillus niger; CS 6% in water, 7 days): 0 CFU × 10^5/ml
inactivation of Asperigillus (Aspergillus niger; CS gel in as low a concentration as 0.6%): completely inactivated
inactivation of Escherichia (Escherichia coli; 6% CS gel): completely inactivated
Day 14 CFU/g (Escherichia coli; 6% CS gel, ATCC 8739, room temperature, Day 14): 0 CFU/g
Day 28 CFU/g (Escherichia coli; 6% CS gel, ATCC 8739, room temperature, Day 28): 0 CFU/g
Escherichia coli CFU (Escherichia coli; CS 0.06% in water, 24 hours): 0 CFU × 10^5/ml
Escherichia coli CFU (Escherichia coli; CS 0.06% in water, 48 hours): 1.15 CFU × 10^5/ml
Escherichia coli CFU (Escherichia coli; CS 0.06% in water, 72 hours): 1.21 CFU × 10^5/ml
Escherichia coli CFU (Escherichia coli; CS 0.06% in water, 96 hours): 0.13 CFU × 10^5/ml
Escherichia coli CFU (Escherichia coli; CS 0.06% in water, 7 days): 1.12 CFU × 10^5/ml
Escherichia coli CFU (Escherichia coli; CS 0.6% in water, 24 hours): 5.6 CFU × 10^5/ml
Escherichia coli CFU (Escherichia coli; CS 0.6% in water, 48 hours): 5.81 CFU × 10^5/ml
Escherichia coli CFU (Escherichia coli; CS 0.6% in water, 72 hours): 4.43 CFU × 10^5/ml
Escherichia coli CFU (Escherichia coli; CS 0.6% in water, 96 hours): 6.92 CFU × 10^5/ml
Escherichia coli CFU (Escherichia coli; CS 0.6% in water, 7 days): 4.39 CFU × 10^5/ml
Escherichia coli CFU (Escherichia coli; CS 1.2% in water, 24 hours): 0.98 CFU × 10^5/ml
Escherichia coli CFU (Escherichia coli; CS 1.2% in water, 48 hours): 3.125 CFU × 10^5/ml
Escherichia coli CFU (Escherichia coli; CS 1.2% in water, 72 hours): 1.625 CFU × 10^5/ml
Escherichia coli CFU (Escherichia coli; CS 1.2% in water, 96 hours): 4.54 CFU × 10^5/ml
Escherichia coli CFU (Escherichia coli; CS 1.2% in water, 7 days): 3.78 CFU × 10^5/ml
Escherichia coli CFU (Escherichia coli; CS 6% in water, 24 hours): 0 CFU × 10^5/ml
Escherichia coli CFU (Escherichia coli; CS 6% in water, 48 hours): 0.01 CFU × 10^5/ml
Escherichia coli CFU (Escherichia coli; CS 6% in water, 72 hours): 0 CFU × 10^5/ml
Escherichia coli CFU (Escherichia coli; CS 6% in water, 96 hours): 0 CFU × 10^5/ml
Escherichia coli CFU (Escherichia coli; CS 6% in water, 7 days): 0 CFU × 10^5/ml
inactivation of Escherichia (Escherichia coli; lower CS concentrations (except 0.06% CS gel), no growth occurs): either not inactivated or only to a minor extent
inactivation of Pseudomonas (Pseudomonas aeruginosa; 6% CS gel): completely inactivated
Day 14 CFU/g (Pseudomonas aeruginosa; 6% CS gel, ATCC 9027, room temperature, Day 14): 0 CFU/g
Day 28 CFU/g (Pseudomonas aeruginosa; 6% CS gel, ATCC 9027, room temperature, Day 28): 0 CFU/g
Pseudomans aeruginosa CFU (Pseudomonas aeruginosa; CS 0.06% in water, 24 hours): 0 CFU × 10^5/ml
Pseudomans aeruginosa CFU (Pseudomonas aeruginosa; CS 0.06% in water, 48 hours): 0.48 CFU × 10^5/ml
Pseudomans aeruginosa CFU (Pseudomonas aeruginosa; CS 0.06% in water, 72 hours): 1.125 CFU × 10^5/ml
Pseudomans aeruginosa CFU (Pseudomonas aeruginosa; CS 0.06% in water, 96 hours): 1.87 CFU × 10^5/ml
Pseudomans aeruginosa CFU (Pseudomonas aeruginosa; CS 0.06% in water, 7 days): 2.04 CFU × 10^5/ml
Pseudomans aeruginosa CFU (Pseudomonas aeruginosa; CS 0.6% in water, 24 hours): 5.43 CFU × 10^5/ml
Pseudomans aeruginosa CFU (Pseudomonas aeruginosa; CS 0.6% in water, 48 hours): 6.80 CFU × 10^5/ml
Pseudomans aeruginosa CFU (Pseudomonas aeruginosa; CS 0.6% in water, 72 hours): 4.43 CFU × 10^5/ml
Pseudomans aeruginosa CFU (Pseudomonas aeruginosa; CS 0.6% in water, 96 hours): 6.92 CFU × 10^5/ml
Pseudomans aeruginosa CFU (Pseudomonas aeruginosa; CS 0.6% in water, 7 days): 6.05 CFU × 10^5/ml
Pseudomans aeruginosa CFU (Pseudomonas aeruginosa; CS 1.2% in water, 24 hours): 2.08 CFU × 10^5/ml
Pseudomans aeruginosa CFU (Pseudomonas aeruginosa; CS 1.2% in water, 48 hours): 2.625 CFU × 10^5/ml
Pseudomans aeruginosa CFU (Pseudomonas aeruginosa; CS 1.2% in water, 72 hours): 2.31 CFU × 10^5/ml
Pseudomans aeruginosa CFU (Pseudomonas aeruginosa; CS 1.2% in water, 96 hours): 2.82 CFU × 10^5/ml
Pseudomans aeruginosa CFU (Pseudomonas aeruginosa; CS 1.2% in water, 7 days): 4.79 CFU × 10^5/ml
Pseudomans aeruginosa CFU (Pseudomonas aeruginosa; CS 6% in water, 24 hours): 0 CFU × 10^5/ml
Pseudomans aeruginosa CFU (Pseudomonas aeruginosa; CS 6% in water, 48 hours): 0 CFU × 10^5/ml
Pseudomans aeruginosa CFU (Pseudomonas aeruginosa; CS 6% in water, 72 hours): 0 CFU × 10^5/ml
Pseudomans aeruginosa CFU (Pseudomonas aeruginosa; CS 6% in water, 96 hours): 0 CFU × 10^5/ml
Pseudomans aeruginosa CFU (Pseudomonas aeruginosa; CS 6% in water, 7 days): 0 CFU × 10^5/ml
inactivation of Pseudomonas (Pseudomonas aeruginosa; lower CS concentrations): not inactivated but growth was prevented
